BindingDB's records for PubMed 2078271 (Sorbonne University, 1990)

These molecules were tested against T1, 5-hydroxytryptamine receptor 1A (Homo sapiens, UniProt P08908).
T1 sequence (P08908 whole entry): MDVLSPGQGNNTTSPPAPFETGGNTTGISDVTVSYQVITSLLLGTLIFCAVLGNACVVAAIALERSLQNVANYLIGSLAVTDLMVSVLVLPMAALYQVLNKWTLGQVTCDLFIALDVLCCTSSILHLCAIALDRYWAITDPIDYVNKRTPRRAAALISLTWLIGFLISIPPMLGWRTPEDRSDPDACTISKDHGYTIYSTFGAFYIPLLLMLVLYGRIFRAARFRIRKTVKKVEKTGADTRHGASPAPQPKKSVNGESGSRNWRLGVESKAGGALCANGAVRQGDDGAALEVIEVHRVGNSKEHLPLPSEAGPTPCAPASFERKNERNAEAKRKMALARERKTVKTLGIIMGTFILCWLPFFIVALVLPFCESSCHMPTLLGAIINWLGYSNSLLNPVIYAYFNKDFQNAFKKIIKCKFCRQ
For `COc1ccccc1N1CCN(CCN(C(=O)c2ccc(I)cc2)c2ccccn2)CC1`, the Ki was 0.32 nM. In the case of `CC(C)(C)NCC(O)COc1ccccc1C1CCCC1` (single isomer, unassigned; (-)) [NSC_37464], the Ki is reported as 8 nM. `CC(C)(C)NCC(O)COc1cccc2c1SCCC2` (single isomer, unassigned; (-)) [TERTATOLOL(-)] gave a Ki of 10 nM. With `O=C1c2ccccc2S(=O)(=O)N1CCCCN1CCN(c2ncccn2)CC1` [1,1-Dioxo-2-[4-(4-pyrimidin-2-yl-piperazin-1-yl)-butyl]-1,2-dihydro-1lambda*6*-benzo[d]isothiazol-3-one] the Ki was 10 nM. `COc1c(O)c(O)cc2c1CC(N)CC2` (stereo not drawn) [5-OME-3-ADTN] gave a Ki of 1 nM. In the case of `FC(F)(F)c1cccc(C2=CCN(CCc3ccc4ccccc4c3)CC2)c1` [CAS_90494-79-4], the Ki is reported as 2 nM. For `Clc1cnn(CCCCN2CCN(c3ncccn3)CC2)c1` [CAS_132449-46-8], the Ki was 50 nM. For `COC(=O)c1cc2c(N3CCN(CCCCN4C(=O)c5ccccc5S4(=O)=O)CC3)cccc2[nH]1` [CAS_141533-35-9], the Ki was 0.7 nM. In the case of `O=C(NCCN1CCN(c2cccc3c2OCC(CO)O3)CC1)c1ccc(F)cc1` (stereo not drawn) [FLESINOXAN], the Ki is reported as 3 nM. With `CCCN(CCC)CCc1c[nH]c2ccc(C(N)=O)cc12` [NN-DIPROP-5-CT] the Ki was 0.2 nM. `CCCN(CCCCN1C(=O)CC2(CCCC2)CC1=O)C1COc2cccc(OC)c2C1` (stereo not drawn) [NSC_121851] was tested, and the Ki was 0.2 nM. `COc1ccccc1N1CCN(CCCNc2c(C)c(=O)n(C)c(=O)n2C)CC1` [Urapidil-5-methyl] was tested, and the Ki was 0.35 nM. `COc1ccccc1N1CCN(C[C@@H](C(=O)NC(C)(C)C)c2ccccc2)CC1` [WAY 100135] showed a Ki of 20 nM.
